Measurements published in patent US6281209A, “Fungicidal alkoximinomethyldioxazine derivatives” (Bayer Aktiengesellschaft, priority 1997, dated 2001).
Read-outs that look alike come from different tables or passages of the source.

How the values were obtained:
[1] = phys. data (logP), Table 1; format: physicochemical
Pyricularia oryzae = format: in vivo; conditions: rice, protective, 750 g/ha, contact time of one day, evaluated 4 days after inoculation
Venturia inaequalis = test: Venturia Test (Apple)/Protective; format: in vivo; conditions: protective, 10 g/ha, evaluated 12 days after inoculation
Description: Venturia Test (Apple)/Protective Solvent: 47 parts by weight of acetone Emulsifier: 3 parts by weight of alkylaryl polyglycol ether To produce a suitable preparation of active compound, 1 part by weight of active compound is mixed with the stated amounts of solvent and emulsifier, and the concentrate is diluted with water to the desired concentration. To test for protective activity, young plants are sprayed with the preparation of active compound at the stated application rate. After the spray coating has dried on, the plants are inoculated with an aqueous conidia suspension of the causative organism of apple scab Venturia inaequalis and then remain in an incubation cabin at approximately 20° C. 100% relative atmospheric humidity for 1 day. The plants are then placed in the greenhouse at approximately 21° C. and a relative atmospheric humidity of approximately 90%.

Plasmopara viticola = test: Plasmopara Test (Grapevine)/Protective; format: in vivo; conditions: protective, 100 g/ha, evaluated 6 days after inoculation
Description: Plasmopara Test (Grapevine)/Protective Solvent: 47 parts by weight of acetone Emulsifier: 3 parts by weight of alkylaryl polyglycol ether To produce a suitable preparation of active compound, 1 part by weight of active compound is mixed with the stated amounts of solvent and emulsifier, and the concentrate is diluted with water to the desired concentration. To test for protective activity, the young plants are sprayed with the preparation of active compound at the stated application rate. After the spray coating has dried on, the plants are inoculated with an aqueous spore suspension of Plasmopara viticola and then remain in an incubation cabin at approximately 20° C. and 100% relative atmospheric humidity for 1 day. The plants are subsequently placed in a greenhouse at approximately 21° C. and approximately 90% relative atmospheric humidity for 5 days. The plants are then moistened and placed in an incubation cabin for 1 day.

Leptosphaeria nodorum = test: Leptosphaeria Nodorum Test (Wheat)/Protective; format: in vivo; conditions: protective, 25 g/ha, evaluated 10 days after inoculation
Description: Leptosphaeria Nodorum Test (Wheat)/Protective Solvent: 10 parts by weight of N-methyl-pyrrolidone Emulsifier: 0.6 parts by weight of alkylaryl polyglycol ether To produce a suitable preparation of active compound, 1 part by weight of active compound is mixed with the stated amounts of solvent and emulsifier, and the concentrate is diluted with water to the desired concentration. To test for protective activity, young plants are sprayed with the preparation of active compound at the stated application rate. After the spray coating has dried on, the plants are sprayed with a spore suspension of Leptosphaeria nodorum. The plants remain in an incubation cabin at 20° C. and 100% relative atmospheric humidity for 48 hours.

Compound | logP ([1]; read-out: logP) | further results
CON=C(C1=NOCCO1)c1ccccc1OC(=O)C=C(C)c1ccccc1OC(C)C [Example 24] | 3.87 | –
CON=C(C1=NOCCO1)c1ccccc1OC(=O)C=C(C)COc1cccc(C(F)(F)F)c1 [Example 3] | – | efficacy in comparison with the untreated control (Pyricularia oryzae): more than 80%
CCCOc1ccccc1C(C)=CC(=O)Oc1ccccc1C(=NOC)C1=NOCCO1 [Example 26] | 3.98 | –
CON=C(C1=NOCCO1)c1ccccc1OC(=O)C=C(C)c1ccc(Br)cc1 [Example 10] | 3.78 | –
CON=C(C1=NOCCO1)c1ccccc1OC(=O)C=C(C)c1ccccc1Br [Example 45] | 3.58 | –
CON=C(C1=NOCCO1)c1ccccc1OC(=O)C=C(C)c1ccccc1 [Example 6] | 3.22 | efficacy in comparison with the untreated controls (Venturia inaequalis): up to 100%; efficacy in comparison with the untreated control (Plasmopara viticola): up to 100%
CCc1cccc(C(C)=CC(=O)Oc2ccccc2C(=NOC)C2=NOCCO2)c1 [Example 9] | 3.91 | efficacy in comparison with the untreated controls (Venturia inaequalis): up to 100%; efficacy in comparison with the untreated control (Plasmopara viticola): up to 100%; efficacy in comparison with the untreated control (Pyricularia oryzae): more than 80%
CON=C(C1=NOCCO1)c1ccccc1OC(=O)C=C(C)c1cccc(C)c1 [Example 17] | 3.58 | –
CON=C(C1=NOCCO1)c1ccccc1OC(=O)C=C(C)c1ccccc1C(F)(F)F [Example 43] | 3.58 | –
CON=C(C1=NOCCO1)c1cc(C)ccc1OC(=O)C=C(C)c1cccc(Cl)c1 [Example 32] | 3.9 | –
CON=C(C1=NOCCO1)c1ccccc1OC(=O)C=C(C)c1ccc(Cl)nc1 [Example 46] | 2.75 | –
CON=C(C1=NOCCO1)c1ccccc1OC(=O)C=C(C)c1cc(Cl)ccc1Cl [Example 14] | 3.93 | –
CON=C(C1=NOCCO1)c1ccccc1OC(=O)C=C(C)c1cccc(Br)c1 [Example 4] | 3.72 | efficacy in comparison with the untreated control (Leptosphaeria nodorum): 70%; efficacy in comparison with the untreated controls (Venturia inaequalis): up to 100%; efficacy in comparison with the untreated control (Plasmopara viticola): up to 100%
CON=C(C1=NOCCO1)c1ccccc1OC(=O)C=C(C)c1ccc(F)cc1 [Example 20] | 3.28 | –
CON=C(C1=NOCC(C)(C)O1)c1ccccc1OC(=O)C=C(C)c1ccc(C(F)(F)F)cc1 [Example 23] | 4.23 | –
CON=C(C1=NOCCO1)c1ccccc1OC(=O)C=C(C)c1cccc(OC)c1 [Example 5] | 3.22 | efficacy in comparison with the untreated controls (Venturia inaequalis): up to 100%; efficacy in comparison with the untreated control (Plasmopara viticola): up to 100%
CON=C(C1=NOCCO1)c1ccccc1OC(=O)C=C(C)c1ccc(C)cc1 [Example 13] | – | logP [1]: 4.06
CON=C(C1=NOCCO1)c1ccccc1OC(=O)C=C(C)c1cc(C)ccc1C [Example 44] | 3.85 | –
CCOc1ccc(C(C)=CC(=O)Oc2ccccc2C(=NOC)C2=NOCCO2)cc1 [Example 12] | 3.57 | –
CON=C(C1=NOCCO1)c1ccccc1OC(=O)C=C(C)c1ccc(OC)cc1 [Example 21] | 3.19 | –
CON=C(C1=NOCC(C)O1)c1ccccc1OC(=O)C=C(C)c1ccc(C(F)(F)F)cc1 (stereo not drawn) [Example 22] | 4.02 | –
CON=C(C1=NOCCO1)c1ccccc1OC(=O)C=C(C)c1ccc(C(F)(F)F)cc1 [Example 7] | 3.81 | efficacy in comparison with the untreated controls (Venturia inaequalis): up to 100%; efficacy in comparison with the untreated control (Pyricularia oryzae): more than 80%
CON=C(C1=NOCCO1)c1ccccc1OC(=O)C=C(C)c1ccccc1OC [Example 42] | 3.28 | –
CON=C(C1=NOCCO1)c1ccccc1OC(=O)C=C(C)c1ccccc1F [Example 29] | 3.25 | –
CON=C(C1=NOCCO1)c1ccccc1OC(=O)C=C(C)c1cccc(Cl)c1 [Example 19] | 3.64 | –
CON=C(C1=NOCCO1)c1ccccc1OC(=O)C=C(C)c1ccc(C)cc1 [Example 8] | 3.58 | efficacy in comparison with the untreated controls (Venturia inaequalis): up to 100%; efficacy in comparison with the untreated control (Plasmopara viticola): up to 100%; efficacy in comparison with the untreated control (Pyricularia oryzae): more than 80%
CON=C(C1=NOCCO1)c1ccccc1OC(=O)C=C(C)c1cccc(C(F)(F)F)c1 [Example 1, 2-[(5,6-dihydro-[1,4,2]dioxazin-3-yl)-methoxyiminomethyl]-phenyl 3-(3-trifluoromethylphenyl)-but-2-enoate] | – | efficacy in comparison with the untreated controls (Venturia inaequalis): up to 100%; efficacy in comparison with the untreated control (Plasmopara viticola): up to 100%
CON=C(C1=NOCCO1)c1ccccc1OC(=O)C=C(C)c1ccccc1C [Example 47] | 3.48 | –
CCOc1ccccc1C(C)=CC(=O)Oc1ccccc1C(=NOC)C1=NOCCO1 [Example 25] | 3.63 | –
